Consider 8 molecules from US12325697B2 (Nimbus Clio, Inc., priority 2021, dated 2025).

Some results are limits rather than exact numbers.

Test [1] concerns Jurkat (clone E6-1) cells, NFAT luciferase reporter. The test can be described thus: Jurkat Reporter Assay (NFAT Luciferase). It counts as cell-based. Conditions: Homo sapiens, anti-CD3 stimulation, 6 hr, read-out: Jurkat NFAT EC50. On the technique in general: A reporter such as luciferase makes a cellular process visible.
Test [2] relates to Phospho-Zap70 (Y-319) in Jurkat wild-type (clone E6-1) cells. In words: Jurkat pZAP70 HTRF Assay. It counts as cell-based. Conditions: Homo sapiens, anti-CD3 5 μg/ml, 3 hr, read-out: ZAP70 Jurkat EC50.
For test [3], the target named is Recombinant human Cbl-b (aa 36-427) (Homo sapiens (Human), UniProt Q13191). In words: Cbl-b Biochemical Assay (TR-FRET). The conditions noted are these: read-out: TR-FRET hCbl-b IC50. The method in brief: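 IC50 from 4-parameter fit of % inhibition (DMSO max, reference-inhibitor min), duplicate ten-point series. Compound preincubated with 6 nM Cbl-b, then Src-Zap70 (1-2.5 nM)/0.5 mM ATP reaction 60 min RT; EDTA quench with labelled UBE2D2-Ub and streptavidin-terbium, 60 min, HTRF at 520 nm.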
Sequence of Recombinant human Cbl-b (aa 36-427) (Q13191 36-427): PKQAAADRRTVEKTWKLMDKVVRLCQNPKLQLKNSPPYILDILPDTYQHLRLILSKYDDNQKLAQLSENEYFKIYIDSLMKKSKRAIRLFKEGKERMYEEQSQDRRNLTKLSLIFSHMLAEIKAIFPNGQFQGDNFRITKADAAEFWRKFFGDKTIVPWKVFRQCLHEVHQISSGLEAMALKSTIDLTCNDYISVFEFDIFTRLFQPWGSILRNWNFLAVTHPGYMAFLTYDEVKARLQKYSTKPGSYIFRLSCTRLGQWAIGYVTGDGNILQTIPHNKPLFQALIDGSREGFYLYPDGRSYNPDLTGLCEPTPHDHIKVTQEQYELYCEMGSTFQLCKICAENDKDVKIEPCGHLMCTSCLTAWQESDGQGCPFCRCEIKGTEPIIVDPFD
A general note: TR-FRET usually uses a lanthanide donor and a delayed reading to cut background.

In general, EC50 refers to the concentration needed to bring the measured effect to its halfway point. By IC50 is commonly meant the concentration at which inhibition is half-maximal.

Turning to `CCNc1cc(-c2ccc(C#N)cc2-c2nncn2C)cc(N2Cc3c(cc(CNCCOC)cc3C(F)(F)F)C2=O)n1` [AEC-2, 4-[2-(Ethylamino)-6-(6-{[(2-methoxyethyl)amino]methyl}-1-oxo-4-(trifluoromethyl)-3H-isoindol-2-yl)pyridin-4-yl]-3-(4-methyl-1,2,4-triazol-3-yl)benzonitrile], the EC50 in test [1] and in test [2] was less than 200 nM each time. Further, in test [3], the IC50 was no more than 200 nM.

With `Cn1cnnc1-c1cc(F)ccc1-c1cccc(N2Cc3ccc(CNCC4(O)CCCC4)cc3C2=O)c1` [AHB-1, 2-(4′-Fluoro-2′-(4-methyl-4H-1,2,4-triazol-3-yl)-[1,1′-biphenyl]-3-yl)-6-((((1-hydroxycyclopentyl)methyl)amino)methyl) isoindolin-1-one], the EC50 in test [1] and in test [2] was less than 200 nM in each case. Besides, in test [3], the IC50 is no more than 200 nM.

For `CCNc1cc(-c2ccc(C#N)cc2-c2nncn2C)cc(N2Cc3c(cc(OC)cc3C(F)(F)F)C2=O)n1` [AEU-8, 4-[2-(Ethylamino)-6-[6-methoxy-1-oxo-4-(trifluoromethyl)-3H-isoindol-2-yl]pyridin-4-yl]-3-(4-methyl-1,2,4-triazol-3-yl)benzonitrile], the figures for the EC50 in test [1] and in test [2] were less than 200 nM and 200 to 1000 nM, respectively. The half-maximal inhibitory concentration (IC50) in test [3] was no more than 200 nM.

In the case of `Cn1cnnc1-c1cc(F)ccc1-c1cccc(N2Cc3c(cc(CNCC4(O)CCC4)cc3C(F)(F)F)C2=O)c1` [AFN-3, 2-[4′-Fluoro-2′-(4-methyl-1,2,4-triazol-3-yl)-[1,1′-biphenyl]-3-yl]-6-({[(1-hydroxycyclobutyl)methyl]amino}methyl)-4-(trifluoromethyl)-3H-isoindol-1-one], the EC50 in test [1] and in test [2] was less than 200 nM throughout. For the same molecule, in test [3], the half-maximal inhibitory concentration (IC50) was no more than 200 nM.

As to `Cn1cnnc1-c1cc(F)ccc1-c1cc(C2CC2)nc(N2Cc3c(cc(COCC4(N)CCC4)cc3C(F)(F)F)C2=O)c1` [AGG-2, 6-{1[(1-Aminocyclobutyl)methoxy]methyl}-2-{6-cyclopropyl-4-[4-fluoro-2-(4-methyl-1,2,4-triazol-3-yl)phenyl]pyridin-2-yl}-4-(trifluoromethyl)-3H-isoindol-1-one], the EC50 in test [1] and in test [2] was less than 200 nM throughout. Further, the concentration for half-maximal inhibition (IC50) in test [3] was no more than 200 nM.

Turning to `Cn1cnnc1-c1ccccc1-c1cc(C2CC2)nc(N2Cc3cc(F)c(CNCC4(O)CCC4)cc3C2=O)c1` [AEI-5, 2-{6-Cyclopropyl-4-[2-(4-methyl-1,2,4-triazol-3-yl)phenyl]pyridin-2-yl}-5-fluoro-6-({[(1-hydroxycyclobutyl)methyl]amino}methyl)-3H-isoindol-1-one], the EC50 in test [1] and in test [2] was less than 200 nM throughout. Also, in test [3], the half-maximal inhibitory concentration (IC50) is no more than 200 nM.

On to `CCNc1cc(-c2ccc(F)cc2-c2nncn2C)cc(N2Cc3c(cc(COCC4(F)CCC4)cc3C(F)(F)F)C2=O)n1` [AGB-1, 2-[6-(Ethylamino)-4-[4-fluoro-2-(4-methyl-1,2,4-triazol-3-yl)phenyl]pyridin-2-yl]-6-{1[(1-fluorocyclobutyl)methoxy]methyl}-4-(trifluoromethyl)-3H-isoindol-1-one], for which the EC50 was less than 200 nM in test [1] and 1000 to 10000 nM in test [2]. Moreover, the IC50 in test [3] was no more than 200 nM.

As for `Cn1cnnc1-c1cc(F)ccc1-c1cc(C2CC2)nc(N2Cc3c(cc(CNCC4(O)CCC4)cc3C(F)(F)F)C2=O)c1` [AEY-1, 2-{6-Cyclopropyl-4-[4-fluoro-2-(4-methyl-1,2,4-triazol-3-yl)phenyl]pyridin-2-yl}-6-({[(1-hydroxycyclobutyl)methyl]amino}methyl)-4-(trifluoromethyl)-3H-isoindol-1-one], the EC50 in test [1] and in test [2] was less than 200 nM throughout. For the same molecule, the IC50 in test [3] was no more than 200 nM.
